# Where two headings read alike, the source gives them in different places.
# Legend:
# [1] = target: T1, α2β1 Na+/K+-ATPase (Rattus norvegicus, UniProt P06686); assay: Na+,K+-ATPase activity assay on homogenates of Sf-9 cells expressing α2β1 isozyme (32Pi release from ATP); format: biochemical
# T1 construct: made in house; host or cells: Sf-9 insect cells, baculovirus
# [2] = tested on: four human NSCLC cell lines; format: cell-based; settings: three days, FIG. 6A
# [3] = tested on: α1β1, α2β1 and α3β1 Na,K-ATPases; assay: Na+,K+-ATPase activity assay on Sf-9 homogenates, statements for all isozymes together; format: biochemical
# Description: Na^+,K^+-ATPase activity was assayed on homogenates of Sf-9 cells expressing the α1β1, α2β1 and α3β1 isozymes. The initial rate of release of ^32Pi from γ[^32P]-ATP was measured. The ATPase activity of 30-40 μg total protein samples was measured in a final volume of 0.25 ml in a medium containing 120 mM NaCl, 30 mM KCl, 3 mM MgCl2, 0.2 mM EGTA, 30 mM Tris-HCl (pH 7.4)±particular concentrations of a tested agent, e.g., herein compound 2.
# Samples were preincubated with the inhibitor for 10 min. The assay was started by the addition of ATP with 0.2 μCi γ[32P]-ATP (2 mM final concentration). Following 30 min incubation at 37° C. the tubes were placed on ice, and the reaction was terminated by the addition of 25 μL of 55% trichloroacetic acid. Released 32Pi-Pi was converted into phosphomolybdate and extracted with isobutanol. The radioactivity in 150 μl of the organic phase was measured by liquid scintillation counting. […] The specific activity was therefore determined as the difference in ATP hydrolysis in the presence and absence of 0.0001 M compound 2.
# To determine the effect of compound 2 on the activity of the Na^+/K^+-ATPase and its various isozymes, α1β1, α2β1 and α3β1 sodium pump complexes were produced using the baculovirus expression system and dose-response curves to the compound were performed. […]
# [4] = target: T2, α3β1 Na+/K+-ATPase (Rattus norvegicus, UniProt P06687); assay: Na+,K+-ATPase activity assay on homogenates of Sf-9 cells expressing α3β1 isozyme (32Pi release from ATP); format: biochemical
# T2 construct: made in house; host or cells: Sf-9 insect cells, baculovirus
# [5] = tested on: C6 rat glioma, MXT mouse mammary carcinoma and mouse B16F10 melanoma cell lines; assay: In vitro anti-tumour effect on three rodent cancer cell lines; format: cell-based; settings: high doses (10 μM), FIG. 6B
# Excerpt: We also made use of three murine cell lines, i.e., three cancer cell lines including the C6 rat glioma, the MXT mouse mammary adenocarcinomas and the mouse B16F10 melanoma models.
# Then, we made use of three rodent cancer cell lines, i.e. the C6 rat glioma, the MXT mouse […] mammary carcinoma and the mouse B16F10 melanoma models.
# [6] = target: T3, α1β1 Na+/K+-ATPase (Rattus norvegicus, UniProt P06685); assay: Na+,K+-ATPase activity assay on homogenates of Sf-9 cells expressing α1β1 isozyme (32Pi release from ATP); format: biochemical
# T3 construct: made in house; host or cells: Sf-9 insect cells, baculovirus
# Description: Samples were preincubated with the inhibitor for 10 min. The assay was started by the addition of ATP with 0.2 μCi γ[32P]-ATP (2 mM final concentration). […] Released 32Pi-Pi was converted into phosphomolybdate and extracted with isobutanol. The radioactivity in 150 μl of the organic phase was measured by liquid scintillation counting.
# [7] = target: T3, α1β1 Na+/K+-ATPase; settings: Table 4A, from Blanco et al. 2005; read-out: inhibition constant (Ki) α1β1; cited from earlier work
smiles,measurement,setting,value
C[C@@H]1CC2(NC(=O)CS2)[C@]2(O)O[C@@H]3C[C@]4(CO)C5CC[C@]6(C)[C@@H](C7=CC(=O)OC7)CC[C@]6(O)[C@@H]5CC[C@H]4C[C@H]3O[C@@H]2O1 (stereo partly shown) [Compound 2],Ki,[1],15 ± 8 nM
same,impairment of global growth (rank among four cardenolides),[2],strongest
same,ATPase activity at 0.0001 M compound versus 0.001 M ouabain,[3]; 0.0001 M compound 2,comparable to that obtained with 0.001 M ouabain
same,"effect on Na,K-ATPase isozymes","[3]; all α1β1, α2β1 and α3β1",inhibitory effect
same,Ki,[4],3.2 ± 3.4 nM
same,anti-tumor effects in rodent cancer cell lines,[5],displays actual anti-tumor effects
same,Ki,"[6]; Sf-9 expressed α1β1, Table 4A, read-out: inhibition constant (Ki) α1β1",160 ± 70 nM
same,potency of α1β1 inhibition relative to ouabain,[6]; ratio of Ki versus ouabain,approximately 100 times
"C[C@H]1O[C@@H](O[C@H]2[C@@H](O)C[C@H](O[C@H]3[C@@H](O)C[C@H](O[C@H]4CC[C@@]5(C)[C@H](CC[C@@H]6[C@@H]5C[C@@H](O)[C@]5(C)[C@@H](C7=CC(=O)OC7)CC[C@]65O)C4)O[C@@H]3C)O[C@@H]2C)C[C@H](O)[C@@H]1O [Digoxin, reference compound]",impairment of global growth (rank among four cardenolides),[2],weakest
same,Ki,[6],930 ± 410 nM
C[C@@H]1O[C@@H](O[C@H]2C[C@@H](O)[C@]3(CO)[C@H]4[C@H](O)C[C@]5(C)[C@@H](C6=CC(=O)OC6)CC[C@]5(O)[C@@H]4CC[C@]3(O)C2)[C@H](O)[C@H](O)[C@H]1O [Ouabain],Ki,[7],43000 ± 19000 nM
same,impairment of global growth (rank among four cardenolides),[2],digoxin<digitoxin<ouabain<Compound 2
C[C@H]1O[C@@H](O[C@H]2[C@@H](O)C[C@H](O[C@H]3[C@@H](O)C[C@H](O[C@H]4CC[C@@]5(C)[C@H](CC[C@@H]6[C@@H]5CC[C@]5(C)[C@@H](C7=CC(=O)OC7)CC[C@]65O)C4)O[C@@H]3C)O[C@@H]2C)C[C@H](O)[C@@H]1O [digitoxin],impairment of global growth (rank among four cardenolides),[2],digoxin<digitoxin<ouabain<Compound 2

# From patent publication US20100068198A1, “TARGETING OF ALPHA-1 OR ALPHA-3 SUBUNIT OF NA+, K+-ATPASE IN THE TREATMENT OF PROLIFERATIVE DISEASES” (priority 2006, published 2010)
